Here are results for seven compounds from publication PMC7502707, “Characterization and validation of a preventative therapy for hypertrophic cardiomyopathy in a murine model of the disease” (Proceedings of the National Academy of Sciences of the …, 2020).

In test [1] the test system is myocytes isolated from wt and cTnI-G203S mice. As to the kind of experiment: MTT assay (formation of formazan) in myocytes isolated from treated mice. It is filed as in vivo, mouse. Particulars: for effect on BayK(−)-induced increase in metabolic activity (MTT): applied to myocytes from treated mice, nisoldipine 15 μM, Ru360 15 µM, dantrolene 20 µM; for effect on metabolic activity (MTT): myocytes from wt or cTnI-G203S mice treated with AID(S)-TAT or AID-TAT, oligomycin 20 µM. The procedure: The rate of reduction of MTT (Sigma-Aldrich) to formazan by the mitochondrial electron transport chain was measured in intact mouse cardiac myocytes, as previously described ([22], [25]). Each n represents number of replicates for each treatment group from cardiac myocytes isolated from a total of six wt [AID(S)-TAT], four cTnI-G203S [AID(S)-TAT], and three (AID-TAT) mice. Detailed methods are provided in SI Appendix. […]
The rate of reduction of 3-(4,5-Dimethyl-2-thiazolyl)-2,5-diphenyl-2H-tetrazolium bromide (MTT, Sigma-Aldrich, St. Louis, Missouri) to formazan by the mitochondrial electron transport chain was measured in intact mouse cardiac myocytes as previously described (1, 9). This reaction is dependent upon the presence of reduced nicotinamide adenine dinucleotide (NADH) and reduced nicotinamide adenine dinucleotide phosphate (NADPH), and intact mitochondrial electron transport (10). Cardiac myocytes were treated with relevant drugs in 96 well plates. MTT was added to each well to a final concentration of 0.5 mg/ml and the rate of the increase in absorbance immediately measured using a spectrophotometer at 37°C (PowerWave XS, 570 nm, reference wavelength of 620 nm). The rate of the increase in absorbance in response to treatments was expressed as a percentage of the rate of the increase prior to the addition of treatments. Each n represents number of replicates for each treatment group from cardiac myocytes isolated from a total of 6 wt (AID[S]- TAT), 4 cTnI-G203S (AID[S]-TAT), and 3 (AID-TAT) mice.
Immunoblot of ICa-L protein

For test [2] the test system is unchanged. As to the kind of experiment: Mitochondrial membrane potential (JC-1) in myocytes isolated from treated mice. It is filed as in vivo, mouse.
Method: (§5) Male mice expressing the human cTnI gene encoding the human disease-causing mutation cTnI-G203S were used for all studies. […] Male mice expressing the normal human cTnI gene were used as controls (wt). Ten-week-old mice were used for in vitro studies. For in vivo studies, 20- or 30-wk-old cTnI-G203S mice were treated with 10 μM AID-TAT or AID[S]-TAT via intraperitoneal injection, 3×/wk/5 wk. In vivo dose of AID-TAT or AID[S]-TAT (10 μM) was calculated based on blood volume, equating to ∼2 mg/kg total BW. Male animal models were used to eliminate potential differences in responses due to sex. Experiments were performed in a total of 21 wt (AID[S]-TAT), 6 wt (AID-TAT), 15 cTnI-G203S (AID[S]-TAT), and 26 cTnI-G203S (AID-TAT) mice. All animals were randomly assigned to treatment groups.
Fluorescence was measured on a Hamamatsu Orca ER digital camera attached to an inverted Nikon TE2000-U microscope. Fluorescent indicator 5,5′,6,6′-tetrachloro-1,1′,3,3′-tetraethylbenzimidazolylcarbocyanine iodide was used to measure Ψm in cardiac myocytes, as previously described (JC-1, Molecular Probes) ([61]). Autofluorescence was used to measure flavoprotein oxidation in cardiac myocytes based on previously described methods ([13], [29], [62]). Responses to drugs were reported as a percentage increase from the basal average.
Cells were incubated in calcium-free HBS (supplemented with 3 mM EGTA and 200 nM JC-1) for at least 3 h prior to measuring changes in m. Sodium cyanide (NaCN, 40 mM, mitochondrial electron transport blocker) was added at the end of each experiment to collapse m, confirming that the JC-1 signal was indicative of m.
Additionally, individual 580 nm and 535 nm wavelength signals were assessed in each experiment to determine whether the fluorescent indicator was accurately measuring m. Autofluorescence was used to measure flavoprotein oxidation in cardiac myocytes based on previously described methods (ex = 480 nm, em = 535 nm, interval = 1 min, exposure = 1.5 seconds) (4, 6, 7). Carbonyl cyanide-4-(trifluoromethoxy)phenylhydrazone (FCCP, 50 μM, mitochondrial electron transport chain uncoupler) was added at the end of each experiment to increase flavoprotein oxidation confirming signal was mitochondrial in origin. Ratiometric JC-1 or flavoprotein fluorescent signals were quantified by manually tracing myocytes and subtracting an equivalent background region
Responses to drugs were reported as a percentage increase from the basal average. […]
Test [3] has as its system mice expressing β-MHC mutations. Particulars: precardiomyopathic mice expressing β-MHC mutations, compared to untreated mutants; cited from earlier work. From the text: Patients with HCM often present with early hypercontractility that stems from a high-degree of actin–myosin cross-linking ([36]). […] Recent studies have investigated the efficacy of a cardiac-specific small-molecule, Mavacamten (MYK-461), that inhibits β-MHC/actin binding and subsequently reduces sarcomere force output and contractility ([39], [40]), as a potential HCM therapeutic. Treatment of precardiomyopathic mice expressing β-MHC mutations with M ...

The test system of a further test is wt mice. As to the kind of experiment: Echocardiography of treated wt mice. It is filed as in vivo, mouse. The following applies: 25-wk-old wt mice, 10 μM i.p. 3×/wk/5 wk from 20 wk; mean, n = 4. The procedure:
(§1) Male mice expressing the human cTnI gene encoding the human disease-causing mutation cTnI-G203S were used for all studies. The mice develop hallmark features of HCM by 21 wk ([7], [13]). Male mice expressing the normal human cTnI gene were used as controls (wt). Ten-week-old mice were used for in vitro studies. For in vivo studies, 20- or 30-wk-old cTnI-G203S mice were treated with 10 μM AID-TAT or AID[S]-TAT via intraperitoneal injection, 3×/wk/5 wk. In vivo dose of AID-TAT or AID[S]-TAT (10 μM) was calculated based on blood volume, equating to ∼2 mg/kg total BW. Male animal models were used to eliminate potential differences in responses due to sex. Experiments were performed in a total of 21 wt (AID[S]-TAT), 6 wt (AID-TAT), 15 cTnI-G203S (AID[S]-TAT), and 26 cTnI-G203S (AID-TAT) mice. All animals were randomly assigned to treatment groups. All animal studies were approved by the Animal Ethics Committee of The University of Western Australia in accordance with the 2013 Australian Code for the Care and Use of Animals for Scientific Purposes ([58]).
(§2) Echocardiographic measurement of left ventricular function were performed on mice under light methoxyflurane anesthesia using an i13L probe on a Vivid 7 Dimension ultrasound system (GE Healthcare), as previously described ([13], [29], [30]). Each n represents the average of quantitative measurements from wt or cTnI-G203S mice for each treatment group. Detailed methods are provided in SI Appendix.
(§3) Echocardiographic measurement of left ventricular function were performed on mice under light methoxyflurane anesthesia using an i13L probe on a Vivid 7 Dimension ultrasound system (GE Healthcare, Little Chalfont, United Kingdom) as previously described (4, 7). Echocardiographic measurements were taken on M-mode in triplicate from separate mice at a sweep speed of 200 mm/s. Each n represents the average of quantitative measurements from wt or cTnI-G203S mice for each treatment group. Measurements of left ventricular end diastolic diameter (LVEDD), left ventricular end systolic diameter (LVESD), fractional shortening (FS), left ventricular posterior wall in diastole (LVDPW), left ventricular posterior wall in systole (LVSPW), interventricular septum in diastole (IVSD), interventricular septum in systole (IVSS) and end diastolic diameter (EDD) were made. FS was calculated by the formula [(LVEDD-LVESD)/EDD] x 100. […]
(§4) (BioAssay Systems, Hayward CA). All assays were performed as per manufacturer’s instructions, using a spectrophotometer (PowerWave XS).

For another test, the system named is cTnI-G203S mice. Description: Echocardiography of treated cTnI-G203S mice. It is filed as in vivo, mouse. Particulars: Pre-HCM treatment (from 20 wk), 25-wk-old cTnI-G203S mice, 10 μM i.p. 3×/wk/5 wk; mean, n = 7 AID(S)-TAT, n = 6 AID-TAT. The procedure:
as §1, §2, §3, §4

The test system of test [4] is myocytes isolated from wt and cTnI-G203S mice. Description: Confocal imaging of F-actin (phalloidin) in myocytes from treated mice. The following applies: myocytes from cTnI-G203S mice treated 10 μM 3×/wk/5 wk, Pre HCM Rx. It is filed as in vivo, mouse. The procedure: Following completion of treatment regimens, myocytes were isolated and prepared for confocal imaging based on previously described methods ([29]). Detailed methods are provided in SI Appendix.
Echocardiographic measurement of left ventricular function were performed on mice under light methoxyflurane anesthesia using an i13L probe on a Vivid 7 Dimension ultrasound system (GE Healthcare, Little Chalfont, United Kingdom) as previously described (4, 7). Echocardiographic measurements were taken on M-mode in triplicate from separate mice at a sweep speed of 200 mm/s. Each n represents the average of quantitative measurements from wt or cTnI-G203S mice for each treatment group. […] FS was calculated by the formula [(LVEDD-LVESD)/EDD] x 100.
Cell size was determined as previously described (16). […]
To measure kidney toxicity, urea and creatinine concentration was assessed using QuantiChrom Urea and Creatinine assay kits respectively (BioAssay Systems, Hayward CA). To measure liver toxicity, alanine transaminase (ALT) and aspartate transaminase (AST) concentration was measured using Alanine Transaminase and Aspartate Transaminase assay kits respectively (BioAssay Systems, Hayward CA). […]

The test system is the same in test [5]. Description: Flavoprotein oxidation in myocytes isolated from treated mice. It is filed as in vivo, mouse. The following applies: applied to myocytes from treated wt or cTnI-G203S mice; nisoldipine 15 μM.
Method: as §5
Fluorescence was measured on a Hamamatsu Orca ER digital camera attached to an inverted Nikon TE2000-U microscope. […]
Additionally, individual 580 nm and 535 nm wavelength signals were assessed in each experiment to determine whether the fluorescent indicator was accurately measuring m. […] Ratiometric JC-1 or flavoprotein fluorescent signals were quantified by manually tracing myocytes and subtracting an equivalent background region […]

Marks after values point to notes of the source that are not given here.

As to `O=C1CN(/N=C/c2ccc(-c3ccc([N+](=O)[O-])cc3)o2)C(O)=N1` [dantrolene], the “effect on BayK(−)-induced increase in metabolic activity (MTT)” value (“effect on BayK(−)-induced increase … (MTT)” for short) in test [1] is listed as “but not with ryanodine receptor blocker dantrolene”.
Regarding `COC(=O)C1=C(C)NC(C)=C([N+](=O)[O-])C1c1ccccc1C(F)(F)F` (stereo not drawn) [BayK(+), reference compound], the “effect on Ψm” value in test [2] (myocytes from wt or cTnI-G203S mice treated with AID(S)-TAT or AID-TAT) is “did not significantly alter Ψm”. The “effect on metabolic activity (MTT)” value in test [1] was “did not significantly alter metabolic activity”.
As to `CC(C)n1c(=O)cc(N[C@@H](C)c2ccccc2)[nH]c1=O` [MYK-461, Mavacamten], the “left ventricular wall thickness, FS, fibrosis and myocyte organization” value in test [3] is “reduce left ventricular wall thickness, FS, and fibrosis, and improve myocyte organization”.
Consider `CC[C@H]1/C=C/C=C/C[C@@H](C)[C@H](O)[C@@](C)(O)C(=O)[C@@H](C)[C@H](O)[C@@H](C)C(=O)[C@@H](C)[C@H](O)[C@@H](C)/C=C/C(=O)O[C@@H]2[C@H](C)[C@H](CC1)O[C@]1(CC[C@H](C)[C@H](C[C@@H](C)O)O1)[C@H]2C` [Oligomycin], for which the “effect on metabolic activity (MTT)” value in test [1] is recorded as “significant decrease in metabolic activity”.
Regarding Ru360, the “effect on BayK(−)-induced increase … (MTT)” value in test [1] is on record as “attenuated”.
As to “QKILGEWDLAQYTDQELE [AID(S)-TAT, reference compound]”, in the test on wt mice, the FS came out at 35.08%, the “HW:BW” value is 4.33 mg/g, the IVSD is 0.76 mm and the IVSS worked out at 0.86 mm. In the test with wt mice, this compound returned an LVDPW of 1.26 mm, an LVEDD of 3.56 mm, an LVESD of 2.31 mm and an LVSPW of 1.42 mm. In addition, in the test with cTnI-G203S mice, the FS is given as 47.39 ^* %, the “HW:BW” value was 5.14 ^* mg/g, the IVSD is given as 0.85 ^* mm and the IVSS is listed as 0.96 ^* mm. For the same compound, in the test on cTnI-G203S mice, the LVDPW was determined as 1.31 mm, the LVEDD is reported as 3.08 ^* mm, the LVESD is given as 1.62 ^* mm and the LVSPW amounted to 1.43 mm. Moreover, the F-actin organization result in test [4] is on record as “F-actin disorganization”.
In the case of `COC(=O)C1=C(C)NC(C)=C(C(=O)OCC(C)C)C1c1ccccc1[N+](=O)[O-]` (centres unmarked) [nisoldipine, reference compound], the “effect on BayK(−)-induced increase in Ψm” value in test [2] (applied to myocytes from treated wt or cTnI-G203S mice, nisoldipine 15 μM) is on record as “attenuated”. Moreover, the “effect on BayK(−)-induced increase in flavoprotein oxidation” value in test [5] is on record as “attenuated”. Moreover, the “effect on BayK(−)-induced increase … (MTT)” value in test [1] is “attenuated”.
